Molecular target: T1, GPR119 (Homo sapiens, UniProt Q8TDV5)
T1 sequence (Q8TDV5 1-335): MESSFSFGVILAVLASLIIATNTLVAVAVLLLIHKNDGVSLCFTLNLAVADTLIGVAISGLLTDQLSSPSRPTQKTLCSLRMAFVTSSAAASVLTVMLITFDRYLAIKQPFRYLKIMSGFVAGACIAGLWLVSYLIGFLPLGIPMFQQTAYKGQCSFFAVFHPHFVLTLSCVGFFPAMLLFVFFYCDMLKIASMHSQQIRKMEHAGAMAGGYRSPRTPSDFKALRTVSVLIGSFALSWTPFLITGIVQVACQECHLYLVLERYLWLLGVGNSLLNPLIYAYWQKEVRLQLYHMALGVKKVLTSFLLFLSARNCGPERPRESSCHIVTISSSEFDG
Assay: cAMP assays of selected examples (stimulation of cAMP)
Type: cell-based
From the text: Camp Assays of Selected Examples

| Compound | EC50 ('>200 nM') | EC50 (<200 nM) |
| --- | --- | --- |
| CS(=O)(=O)c1ccc(OCc2cn(C3CCC(Oc4ncccn4)CC3)nn2)cc1 (centres unmarked) | > 200 nM | – |
| Cc1cnc(OC2CCC(n3cc(COc4ccc(S(C)(=O)=O)cc4)nn3)CC2)nc1 (centres unmarked) | > 200 nM | – |
| CCc1cnc(OC2CCC(n3cc(COc4ccc(S(C)(=O)=O)cc4)nn3)CC2)nc1 (centres unmarked) | > 200 nM | – |
| CCc1cnc(OC2CCC(c3nc(COc4ccc(S(C)(=O)=O)cc4)cs3)CC2)nc1 (centres unmarked) | – | < 200 nM |
| CCc1cnc(OC2CCC(c3nc(CNc4ccc(S(C)(=O)=O)cc4)cs3)CC2)nc1 (centres unmarked) | > 200 nM | – |
| CCc1cnc(OC2CCC(c3nc(COc4ccc(S(C)(=O)=O)cc4F)cs3)CC2)nc1 (centres unmarked) | – | < 200 nM |
| CCc1cnc(OC2CCC(c3nc(COc4ccc(-n5cnnn5)cc4)cs3)CC2)nc1 (centres unmarked) | – | < 200 nM |
| CCc1cnc(OC2CCC(Oc3c(F)cc(-c4ccc(S(C)(=O)=O)cc4)cc3F)CC2)nc1 (centres unmarked) | – | < 200 nM |
